Legend:
Gox1122 = target: T1, Gox1122 (Gluconobacter oxydans, UniProt Q5FRV6); conditions: using NADPH, pH range of 4-10
T1 sequence (Q5FRV6 1-463): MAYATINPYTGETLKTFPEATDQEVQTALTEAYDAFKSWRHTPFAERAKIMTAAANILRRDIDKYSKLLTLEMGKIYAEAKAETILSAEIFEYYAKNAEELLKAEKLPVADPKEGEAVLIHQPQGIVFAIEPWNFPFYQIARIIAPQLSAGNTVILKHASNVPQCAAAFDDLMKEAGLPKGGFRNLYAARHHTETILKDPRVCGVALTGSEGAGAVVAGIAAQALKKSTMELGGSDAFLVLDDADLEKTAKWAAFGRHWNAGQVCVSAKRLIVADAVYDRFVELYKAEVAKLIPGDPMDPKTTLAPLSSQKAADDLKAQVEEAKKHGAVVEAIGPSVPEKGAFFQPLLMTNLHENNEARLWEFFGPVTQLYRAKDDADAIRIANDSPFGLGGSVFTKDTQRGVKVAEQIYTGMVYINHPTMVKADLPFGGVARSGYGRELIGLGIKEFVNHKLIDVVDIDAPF
From the text: The enzyme is used in a combined enzymatic reaction between the NADPH-dependent reductases (see above) that form α-hydroxy carbonyl compounds.

Gox1615 = target: T2, Gox1615 (Gluconobacter oxydans, UniProt Q5FQJ0); test: Enzyme activity assay (rate of NAD(P)H decrease at 340 nm), Gox1615; format: biochemical; conditions: Tab. 5, Gox1615; cofactor NADPH; 10 mM substrate, pH 7.0, 30 °C
T2 sequence (Q5FQJ0 1-332): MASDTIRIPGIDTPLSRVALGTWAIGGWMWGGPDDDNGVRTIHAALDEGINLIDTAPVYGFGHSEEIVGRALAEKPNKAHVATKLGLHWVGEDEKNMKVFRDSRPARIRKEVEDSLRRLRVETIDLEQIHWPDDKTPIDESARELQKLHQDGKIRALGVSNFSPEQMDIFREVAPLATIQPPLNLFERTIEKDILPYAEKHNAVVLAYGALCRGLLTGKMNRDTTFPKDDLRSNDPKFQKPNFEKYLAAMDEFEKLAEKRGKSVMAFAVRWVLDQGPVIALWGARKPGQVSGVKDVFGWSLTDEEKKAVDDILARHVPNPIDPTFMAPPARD
Description: (§1) Measurment of enzyme activity: NADPH-dependent alpha-ketocarbonyl reductases were assayed by a routine method used for NAD(P)-linked enzymes by recording the rate of decrease of NADPH at 340 nm (ε = 6.22 mM^-1 x cm^-1)) with substrates at 30 °C. The reaction mixture (1 ml) for reduction of alpha-ketocarbonyl substrates contained 10 mM substrate, 40 mM potassium phosphate buffer pH 7.0, 0.025 mM NAD(P)H , and the enzyme. Reactions were induced by addition of enzyme or substrate. One unit of enzyme activity was defined as the amount of enzyme catalyzing the conversion of 1 µmol of pyridine nucleotide per min at 30 °C.
(§2) NADPH-dependent α-ketocarbonyl reductases were assayed by a routine method used for NAD(P)-linked enzymes by recording the rate of decrease of NADPH at 340 nm (ε = 6.22 mM^-1.cm^-1) with substrates at 30 °C. The reaction mixture (1 ml) for reduction of alpha-ketocarbonyl substrates contained 10 mM substrate, 40 mM potassium phosphate buffer pH 7.0, 0.025 mM NADPH , and the enzyme. Reactions were induced by addition of enzyme or substrate. One unit of enzyme activity was defined as the amount of enzyme catalyzing the conversion of 1 µmol of pyridine nucleotide per min at 30 °C.
(§3) For each enzyme (Gox0313, Gox0502, Gox0644, Gox0646, Gox1615, Gox2107, and Gox2684 respectively), fresh enzyme preparations were used to validate the substrate spectrum and the kinetic activity. […] Purified NAD(P)-dependent oxidoreductases were assayed at 30 °C by a routine method used for NAD(P)-linked enzymes by recording the rate of decrease of NAD(P)H at 340 nm (ε = […]) with substrates capable of reduction reactions. The standard reaction mixture (1 ml) for the reduction reactions of substrates contained 10 mM substrate, 40 mM potassium phosphate buffer (K-phosphate buffer) pH 7.0, 0.05 mM NAD(P)H, and the enzyme unless otherwise noted. Reactions were induced by addition of enzyme or substrate. One unit of enzyme activity was defined as the amount of enzyme catalyzing the conversion of 1 µmol of pyridine nucleotide per min at 30 °C. Measurement of the protein content was performed by the method of Bradford in Anal. Biochem. 72:248-254 (1976). Table 3: Summary of enzymatic activities with α-diketones, α-ketoaldehydes and /or α-ketoesters

Gox0502 [1] = target: T3, Gox0502 (Gluconobacter oxydans, UniProt Q5FTL6); test: Enzyme kinetics (Lineweaver-Burk plots), Gox0502; conditions: NADPH-dependent reduction
T3 sequence (Q5FTL6 1-361): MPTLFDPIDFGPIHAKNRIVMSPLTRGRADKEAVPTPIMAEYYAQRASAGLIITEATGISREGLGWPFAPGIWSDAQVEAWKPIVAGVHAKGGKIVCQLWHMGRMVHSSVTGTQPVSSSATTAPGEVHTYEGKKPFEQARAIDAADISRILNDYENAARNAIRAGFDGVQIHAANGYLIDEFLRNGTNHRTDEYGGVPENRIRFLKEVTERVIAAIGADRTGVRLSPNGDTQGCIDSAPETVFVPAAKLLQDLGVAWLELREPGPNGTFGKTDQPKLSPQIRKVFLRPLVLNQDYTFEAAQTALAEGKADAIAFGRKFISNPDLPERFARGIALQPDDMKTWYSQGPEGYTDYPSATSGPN

Gox2684 = target: T4, Gox2684 (Gluconobacter oxydans, UniProt Q5HXK5); test: Enzyme activity assay (rate of NAD(P)H decrease at 340 nm), Gox2684; format: biochemical; conditions: Tab. 8, GOX2684; cofactor NADPH; 10 mM substrate, pH 7.0, 30 °C
T4 sequence (Q5HXK5 1-357): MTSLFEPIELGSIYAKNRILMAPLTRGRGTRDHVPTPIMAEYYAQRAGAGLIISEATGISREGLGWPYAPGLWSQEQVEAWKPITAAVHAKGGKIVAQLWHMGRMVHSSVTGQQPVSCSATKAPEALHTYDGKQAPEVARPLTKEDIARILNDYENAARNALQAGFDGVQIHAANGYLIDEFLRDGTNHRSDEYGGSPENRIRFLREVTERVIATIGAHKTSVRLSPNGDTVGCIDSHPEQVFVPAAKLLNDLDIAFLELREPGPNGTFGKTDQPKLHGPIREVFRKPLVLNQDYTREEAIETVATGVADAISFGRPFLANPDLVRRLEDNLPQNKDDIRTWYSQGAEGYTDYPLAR
Description: as §1, §2, §3

Gox0313 = target: T5, Gox0313 (Gluconobacter oxydans, UniProt Q5FU50); test: Enzyme activity assay (rate of NAD(P)H decrease at 340 nm), Gox0313; format: biochemical; conditions: Tab. 6, Gox0313; substrate reduction, cofactor NADH; 10 mM substrate, pH 7.0, 30 °C
T5 sequence (Q5FU50 1-343): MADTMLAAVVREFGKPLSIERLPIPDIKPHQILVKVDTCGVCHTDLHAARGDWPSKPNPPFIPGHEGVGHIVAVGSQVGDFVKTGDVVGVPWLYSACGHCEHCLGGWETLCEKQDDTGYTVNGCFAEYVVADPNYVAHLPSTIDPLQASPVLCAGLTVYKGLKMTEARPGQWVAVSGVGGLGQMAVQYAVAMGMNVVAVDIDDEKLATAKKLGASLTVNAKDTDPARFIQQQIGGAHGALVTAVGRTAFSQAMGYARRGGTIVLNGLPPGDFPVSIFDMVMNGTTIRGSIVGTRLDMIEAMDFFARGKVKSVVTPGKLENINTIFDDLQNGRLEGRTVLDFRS
Description: as §1, §2, §3

Gox0502 [2] = target: T3, Gox0502; test: Enzyme activity assay (rate of NAD(P)H decrease at 340 nm), Gox0502; format: biochemical; parameters: Strep-tag II (N); made in house; host or cells: E. coli BL21 or E. coli DH5α (pASK-IBA5); conditions: Tab. 7, Gox0502; cofactor NADPH; 10 mM substrate, pH 7.0, 30 °C
Description: as §1, §2, §3

Gox2107 [3] = target: T6, Gox2107 (Gluconobacter oxydans, UniProt Q5FP53); test: Enzyme kinetics (Lineweaver-Burk plots), Gox2107; format: biochemical; conditions: NADPH-dependent reduction
Description: Determination of pH and temperature optima and enzyme kinetics: The optimum pH for enzyme activities was determined by a modified method of Salusjärvi, T. et al., Appl. Microbiol. Biotechnol. 65:306-314 (2004) using the following buffer system (50 mM final concentration each): sodium acetate pH 4.5 - 6.5, potassium phosphate pH 6.5 - 8.0, Tris-HCl pH 8.0 - 10. Temperature optima for the biocatalysts were determined under standard reaction conditions at temperatures ranging from 20 - 80 °C. The Michaelis constant (Km) for the proteins was determined from purified enzyme by Lineweaver-Burk plots. Assays were performed at optimum pH for each enzyme and at 30 °C using the top substrate and a targeted substrate. The Km for each substrate was calculated using concentrations of 0.0025 to 10 mM, and the Km NAD(P)H and NAD(P) was calculated using concentrations of 0.01 to 0.5 mM
The Michaelis constants were determined from purified enzyme by Lineweaver-Burk plots. The Km and Vmax values for the substrates were calculated using concentrations of 0.025 to 10 mM, The optimal pH values and temperatures for enzyme activities are also shown in Tab. 11. Tab. 11: Summary of kinetic parameters

Gox2107 [4] = target: T6, Gox2107; test: Enzyme activity assay (rate of NAD(P)H decrease at 340 nm), Gox2107; format: biochemical
Description: as §1, §2, §3

Row | Structure (SMILES) | reverse reduction reaction (result in words) (Gox1122) | Specific Activity (Gox1615) [U/mg] | Vmax (Gox0502 [1]) [U/mg protein] | Specific Activities (Gox2684) [U/mg] | Specific Activity (Gox0313) [U/mg] | Specific Activity (Gox0502 [2]) [U/mg] | Vmax (Gox2107 [3]) [U/mg protein] | activities (Gox2107 [4]; Gox2107, reduction with NADPH) [µmol/mg/min] | Specific Activity (Gox2107 [4]; Tab. 7, Gox2107, cofactor NADPH, 10 mM substrate, pH 7.0, 30 °C) [U/mg]
1 | CC(=O)O [acetic acid] | No reverse reduction reaction |  |  |  |  |  |  |  | 
2 | C=CC(C)=O [3-buten-2-one] |  | 0.7 | 21 | 8.8 | 1.9 | 21 | 119 | 119 | 120
